Where two headings read alike, the source gives them in different places.
Legend:
Type in all cases: cell-based
BRD4 [1] = target: T1, BRD4 (Homo sapiens, UniProt O60885); assay: BRD4 protein degradation by western blotting in RPMI2650 cells (24 h treatment); set-up: To evaluate the resolution of PROTAC for BRD4 expressed in cells; endogenous in cells; host or cells: RPMI2650
Experimental: (§1) The synthesized compounds were prepared with a 10 mM or 50 mM raw material solution dissolved in DMSO [dimethyl sulfoxide], and were diluted sequentially and treated. [RPMI2650] and [SNU2972] were cultivated under specific conditions.
(§2) To evaluate the resolution of PROTAC for BRD4 expressed in cells, cells were dispensed in a concentration of 5 X 10^5 cells/well in a 6-well plate, and the sample was treated for 24 hours. […] Protein expression was normalized based on the expression value of β or GAPDH, and protein expression in each sample was measured as % based on 100% of samples treated with 0.1% DMSO vehicle. Protein expression was quantified using Image J program. Change in protein expression volume by compound treatment (DC50: concentration of compounds where 50% protein expression inhibition is achieved) was calculated using the GraphicPad Prism 8.0 software.

MDA-MB-231 = assay: Cancer cell antiproliferative activity / cell viability in MDA-MB-231 cells (72 h treatment); details: Homo sapiens, read-out: BRD4 (IC50)
Experimental: (§3) The human breast cancer cell line [MDA-MB-231] was cultured in RPMI medium with the addition of 10% fetal bovine serum, penicillin [100U/ml], and streptomycin [[…]]. The synthesized compounds were prepared with a 10 mM or 50 mM raw material solution dissolved in DMSO [dimethyl sulfoxide], and were diluted sequentially and treated. [RPMI2650] and [SNU2972] were cultivated under specific conditions.
(§4) To observe cell growth inhibition, cells were dispensed in a concentration of 5,000 cells/well in a 96-well plate, and samples prepared at various concentrations were treated for 72 hours. The IC50 value (the concentration of the compound achieving 50% cytostaticism) is the average value of the results of three independent measurements.

SNU2972 = assay: Cancer cell antiproliferative activity / cell viability in SNU2972 cells (72 h treatment); details: read-out: BRD4 (IC50)
Experimental: as §3, §4

BRD4 [2] = target: T1, BRD4; assay: BRD4 protein degradation by western blotting in MDA-MB-231 cells (24 h treatment); set-up: To evaluate the resolution of PROTAC for BRD4 expressed in cells; endogenous in cells; host or cells: MDA-MB-231
RPMI2650 = assay: Cancer cell antiproliferative activity / cell viability in RPMI2650 cells (72 h treatment); details: Homo sapiens
Experimental: as §3, §4

BRD4-NUT = target: T2, BRD4-NUT (Homo sapiens, UniProt O60885+Q86Y26); assay: BRD4-NUT protein degradation by western blotting in RPMI2650 cells (24 h treatment)
T2 construct: endogenous in cells; host or cells: RPMI2650
Experimental: as §1, §2

[3] = read-out: BR04 (DC50), RPMI2650
[4] = RPMI-2650, RPMI2650, read-out: BRD4 (IC50)
[5] = read-out: BRD4-NUT (DC50), RPMI2650
[6] = RPM12650, read-out: BRD4 (DC50)
[7] = RPMI-2650, RPM12650, read-out: Cell Viatility (IC50)
[8] = RPM12650, read-out: BRD4-NUT (DC50)

SMILES | DC50 (BRD4 [1]; [3]) [nM] | IC50 (MDA-MB-231) [nM] | IC50 (SNU2972) [nM] | DC50 (BRD4 [2]) [nM] | IC50 (RPMI2650; [4]) [nM] | DC50 (BRD4-NUT; [5]) [nM] | DC50 (BRD4 [1]; [6]) [nM] | IC50 (RPMI2650; [7]) [nM] | DC50 (BRD4-NUT; [8]) [nM] | IC50 (RPMI2650; RPMI-2650, 72 h, RPM12650, read-out: Cell Viatility (IC50)) [nM]
Cc1sc2c(c1C)C(c1ccc(Cl)cc1)=N[C@@H](CC(=O)N1CCC(CN3CCN(c4cc5c(C)nn(C6CCC(=O)NC6=O)c(=O)c5cc4F)CC3)CC1)c1nnc(C)n1-2 (stereo partly drawn) [ICT-0000953, 3-(6-(4-((1-(2-((S)-4-(4-chlorophenyl)-2,3,9-trimethyl-6H-thieno[3,2-f][1,2,4]triazolo[4,3-a][1,4]diazepine-6-il)acetyl)piperidine-4-il)methyl)piperazine-1-il)-7-fluoro-4-methyl-1-oxopthalazine-2(1H)-yl)piperidine-2,6-dione] | < 100 | < 100 | < 100 | < 100 | < 100 | < 100 |  |  |  | 
Cc1sc2c(c1C)C(c1ccc(Cl)cc1)=N[C@@H](CC(=O)N1CCC(CN3CCN(c4cc5cnn(C6CCC(=O)NC6=O)c(=O)c5cc4F)CC3)CC1)c1nnc(C)n1-2 (stereo partly drawn) [ICT-0000971, 3-(6-(4-((1-(2-((S)-4-(4-chlorophenyl)-2,3,9-trimethyl-6H-thieno[3,2-f][1,2,4]triazolo[4,3-a][1,4]diazepine-6-day)acetyl)piperidine-4-il)methyl)piperazine-1-yl)7-fluoro-1-oxopthalazine-2(1H)-yl)piperidine-2,6-dione] | < 100 | < 100 | < 100 | < 100 | < 100 | < 100 |  |  |  | 
Cc1sc2c(c1C)C(c1ccc(Cl)cc1)=N[C@@H](CC(=O)Nc1ccc(N3CCN(c4ccc5c(=O)n(C6CCC(=O)NC6=O)nc(C)c5c4)CC3)cc1)c1nnc(C)n1-2 (stereo partly drawn) [ICT-0001410, 2-((S)-4-(4-chlorophenyl)-2,3,9-trimethyl-6H-thieno[3,2-f][1,2,4]triazolo[4,3-a][1,4]diazepine-6-yl)-N-(4-(4-(2-(2,6-dioxopiperidin-3-yl)-4-methyl-1-oxo-1,2-dihydroptalazine-6-yl)piperazine-1-yl)phenyl)acetamide] | < 100 | < 100 |  | < 100 | < 100 | < 100 |  |  |  | 
Cc1sc2c(c1C)C(c1ccc(Cl)cc1)=N[C@@H](CC(=O)Nc1ccc(CN3CCN(c4ccc5c(=O)n(C6CCC(=O)NC6=O)nc(C)c5c4)CC3)cc1)c1nnc(C)n1-2 (stereo partly drawn) [ICT-0001423, 2-[(9S)-7-(4-chlorophenyl)-4,5,13-trimethyl-3-thia-1,8,11,12-tetraazatricyclo[8.3.0.0^2,^6]trideca-2(6),4,7,10,12-pentaene-9-yl]-N-[4-({4-[2-(2,6-dioxopiperidin-3-yl)-4-methyl-1-oxo-1,2-dihydroptalazine-6-yl]piperazine-1-yl}methyl)phenyl]acetamide] | < 100 | < 100 |  | < 100 | < 100 | < 100 |  |  |  | 
CC[C@@H]1c2nnc(C)n2-c2cnc(Nc3ccc(C(=O)N4CCN(c5ccc6c(=O)n(C7CCC(=O)NC7=O)nc(C)c6c5)CC4)cc3OC)nc2N1CC1CCCCC1 (stereo partly drawn) [ICT-0001576, 3-{6-[4-(4-{[(4R)-5-(cyclohexylmethyl)-4-ethyl-1-methyl-4H,5H-[1,2,4]triazolo[4,3-f]pteridine-7-yl]amino}-3-methoxybenzoyl)piperazine-1-yl]-4-methyl-1-oxo-1,2-dihydroptalazine-2-yl}piperidine-2,6-dione] |  |  |  |  |  |  | < 100 | > 1000 | < 100 | 
CC[C@@H]1c2nnc(C)n2-c2cnc(Nc3ccc(C(=O)N4CCN(c5ccc6c(=O)n(C7CCC(=O)NC7=O)ncc6c5)CC4)cc3OC)nc2N1CC1CCCCC1 (stereo partly shown) [ICT-0001577] |  |  |  |  |  |  | > 1000 | > 1000 | > 1000 | 
CC[C@@H]1c2nnc(C)n2-c2cnc(Nc3ccc(C(=O)NC4CCN(C(=O)CCN5CCN(c6ccc(NC7CCC(=O)NC7=O)cc6F)CC5)CC4)cc3OC)nc2N1CC1CCCCC1 (stereo partly drawn) [ICT-0001578, 4-{[(4R)-5-(cyclohexylmethyl)-4-ethyl-1-methyl-4H,5H-[1,2,4]triazolo[4,3-f]pteridine-7-yl]amino}-N-{1-[3-(4-{4-[(2,6-dioxopiperidin-3-yl)amino]-2-fluorophenyl}piperazine-1-yl)propanoyl]piperidine-4-yl}-3-methoxybenzamide] |  |  |  |  |  |  | > 1000 |  | > 1000 | 100 to 1000
CC[C@@H]1c2nnc(C)n2-c2cnc(Nc3ccc(C(=O)N4CCN(CCNc5cccc6c(C)nn(C7CCC(=O)NC7=O)c(=O)c56)CC4)cc3OC)nc2N1CC1CCCCC1 (stereo partly drawn) [ICT-0001583, 3-(8-((2-(4-(4-(((R)-5-(cyclohexylmethyl)-4-ethyl-1-methyl-4,5-dihydro-[1,2,4]triazolo[4,3-f]pteridine-7-yl)amino)3-methoxybenzoyl)piperazine-1-yl)ethyl)amino)4-methyl-1-oxopthalazine-2(1H)-yl)piperidine-2,6-dione] |  |  |  |  |  |  | < 100 | > 1000 | < 100 | 
CC[C@@H]1c2nnc(C)n2-c2cnc(Nc3ccc(C(=O)N4CCN(c5cccc6c(C)nn(C7CCC(=O)NC7=O)c(=O)c56)CC4)cc3OC)nc2N1CC1CCCCC1 (stereo partly drawn) [ICT-0001584, 3-(8-(4-(4-(((R)-5-(cyclohexylmethyl)-4-ethyl-1-methyl-4,5-dihydro-[1,2,4]triazolo[4,3-f]pteridine-7-yl)amino)-3-methoxybenzoyl)piperazine-1-yl)-4-methyl-1-oxopthalazine-2(1H)-yl)piperidine-2,6-dione] |  |  |  |  |  |  | < 100 | < 100 | < 100 | 
CC[C@@H]1c2nnc(C)n2-c2cnc(Nc3ccc(C(=O)NC4CCN(C(=O)C5CCN(c6ccc7c(C)nn(C8CCC(=O)NC8=O)c(=O)c7c6)CC5)CC4)cc3OC)nc2N1CC1CCCCC1 (stereo partly shown) [ICT-0001592] |  |  |  |  |  |  | < 100 | < 100 | < 100 | 
CC[C@@H]1c2nnc(C)n2-c2cnc(Nc3ccc(C(=O)N4CCN(CCNc5ccc6c(=O)n(C7CCC(=O)NC7=O)nc(C)c6c5)CC4)cc3OC)nc2N1CC1CCCCC1 (stereo partly drawn) [ICT-0001599, 3-(6-((2-(4-(4-(((R)-5-(cyclohexylmethyl)-4-ethyl-1-methyl-4,5-dihydro-[1,2,4]triazolo[4,3-f]pteridine-7-yl)amino)3-methoxybenzoyl)piperazine-1-yl)ethyl)amino)4-methyl-1-oxopthalazine-2(1H)-yl)piperidine-2,6-dione] |  |  |  |  |  |  | < 100 | > 1000 | < 100 | 
CC[C@@H]1c2nnc(C)n2-c2cnc(Nc3ccc(C(=O)N4CCN(CCNc5ccc6c(C)nn(C7CCC(=O)NC7=O)c(=O)c6c5)CC4)cc3OC)nc2N1CC1CCCCC1 (stereo partly drawn) [ICT-0001600, 3-(7-((2-(4-(4-(((R)-5-(cyclohexylmethyl)-4-ethyl-1-methyl-4,5-dihydro-[1,2,4]triazolo[4,3-f]pteridine-7-yl)amino)3-methoxybenzoyl)piperazine-1-yl)ethyl)amino)4-methyl-1-oxopthalazine-2(1H)-yl)piperidine-2,6-dione] |  |  |  |  |  |  | < 100 | < 100 | < 100 | 
CC[C@@H]1c2nnc(C)n2-c2cnc(Nc3ccc(C(=O)N4CCN(CCNc5cccc6cnn(C7CCC(=O)NC7=O)c(=O)c56)CC4)cc3OC)nc2N1CC1CCCCC1 (stereo partly drawn) [ICT-0001601, 3-(8-((2-(4-(4-(((R)-5-(cyclohexylmethyl)-4-ethyl-1-methyl-4,5-dihydro-[1,2,4]triazolo[4,3-f]pteridine-7-yl)amino)3-methoxybenzoyl)piperazine-1-il)ethyl)amino)1-oxopthalazine-2(1H)-yl)piperidine-2,6-dione] |  |  |  |  |  |  | < 100 | < 100 | < 100 | 
CC[C@@H]1c2nnc(C)n2-c2cnc(Nc3ccc(C(=O)N4CCN(CCNc5cccc6c(=O)n(C7CCC(=O)NC7=O)ncc56)CC4)cc3OC)nc2N1CC1CCCCC1 (stereo partly shown) [ICT-0001602] |  |  |  |  |  |  | < 100 | > 1000 | 100 to 1000 | 
CC[C@@H]1c2nnc(C)n2-c2cnc(Nc3ccc(C(=O)N4CCN(CCNc5ccc6c(=O)n(C7CCC(=O)NC7=O)ncc6c5)CC4)cc3OC)nc2N1CC1CCCCC1 (stereo partly drawn) [ICT-0001603, 3-(6-((2-(4-(4-(((R)-5-(cyclohexylmethyl)-4-ethyl-1-methyl-4,5-dihydro-[1,2,4]triazolo[4,3-f]pteridine-7-yl)amino)3-methoxybenzoyl)piperazine-1-yl)ethyl)amino)1-oxopthalazine-2(1H)-yl)piperidine-2,6-dione] |  |  |  |  |  |  | < 100 | > 1000 | < 100 | 

— patent EP4640686A1, “DEGRADER FOR DEGRADING BRD PROTEIN AND PHARMACEUTICAL COMPOSITION CONTAINING SAME” (Innocure Therapeutics, Inc., priority 2022, dated 2024)
